Measurements: a melting point compilation (Tetko et al.; mined from patent text by program, amines drawn as free bases though some values may be those of a salt)

Row | SMILES | melting point
1 | CC(C)N(C)S(=O)(=O)NC(=O)c1cc(N)c(F)cc1Cl | 160 to 162 °C
2 | COc1cc(C)c(Cl)cn1 | 32 to 33 °C
3 | CCCCOC(=O)N(C)C(CNC(=O)CC1CC(c2ccc(C#N)cc2)=NO1)C(=O)O (stereo unspecified) | 154 to 156 °C
4 | O=C(CCCN1CCCCC1)c1ccc2oc3ccc(C(=O)CCCN4CCCCC4)cc3c(=O)c2c1 | 93 to 95 °C
5 | O=S(=O)(F)CCCCCCCc1ccc(OCc2ccccc2)cc1 | 35 to 38 °C
6 | CC(C)NC(=O)Nc1ccnc(Cl)c1 | 142 to 146 °C
7 | NNC(=O)c1ccccc1CS(N)(=O)=O | 221 to 222 °C
8 | CCC(=O)CC(=O)C1CCC2C3CCC4CC(O)CCC4(C)C3C(=O)CC12C (stereo unspecified) | 128 to 130 °C
9 | CC(C)C(=O)Nc1nc2c(ncn2C2OC(CO)C(O)C2OC2CCCO2)c(=O)[nH]1 (stereo unspecified) | 178 to 180 °C
10 | CCCCC[C@@H](CNC(=O)Nc1c(OCC)ccc2c1CCCC2)c1cccc2c1OCO2 | 81.5 to 82.5 °C
11 | CCN(CC)CC1CN(c2c(F)cc3c(=O)c(C(=O)O)cn(C4CC4)c3c2F)CCO1 (stereo unspecified) | 155 to 157 °C
12 | COC1CCCCC1n1nnc2c([N+](=O)[O-])cccc21 (stereo unspecified) | 134 to 136 °C
13 | C=CCC1=C(C)C(OC(=O)C2C(C=CC(C)=O)C2(C)C)CC1=C (stereo unspecified) | < 50 °C
14 | CC(C)N(CCN1C(=O)/C(=N/NC(N)=O)c2cc(F)ccc21)C(C)C | 158 to 160 °C
15 | CCOC1=NS(=O)(=O)C(S(C)(=O)=O)=C1N | 214 to 217 °C
16 | CCCCCCCCCCSc1ccc(C(=O)O)cc1 | 108 to 109 °C
17 | CCCN(CCC)C1CCc2c(ccc3c2C(=O)C(=O)N3)C1 (stereo unspecified) | 83 to 86 °C
18 | O=C=Nc1c(Cl)c(Cl)c(Cl)c(Cl)c1Cl | 100 to 102 °C
19 | Fc1ccc([C@H]2CC[C@H](N3CCC(Cc4cc(F)ccc4F)CC3)CC2)cc1 | 80 to 81 °C
20 | CC(=O)CC(=O)NC1CC(C)(C)NC(C)(C)C1 | 115 °C
21 | C=CCN1CC(C)N(C(c2cccc(O)c2)c2cc(C(=O)N(CC)CC)cs2)CC1C (stereo unspecified) | 108 to 112 °C

Row | SMILES | melting point
22 | CO[C@@H](C(=O)N[C@H]1CC[C@@H](OC(=O)C2CCCCCC2)CNC1=O)[C@H](O)[C@@H](O)[C@H](O)/C=C/C(C)(C)C | 84 to 86 °C
23 | CCOC(=O)C(=O)NS(=O)(=O)Cc1nc(-c2ccc(Cl)c(Cl)c2)cs1 | 180 to 182 °C
24 | CNC(=O)NN(CC(=O)OC)c1cccc(I)c1 | 150 °C
25 | Clc1ccc2c(c1)C(c1ccccc1)=NCCN2C1=NCCO1 | 125 to 126 °C
26 | CC(=O)C1=CCC2C3CCC4CC(O)CCC4(C)C3C(=O)CC12C (stereo unspecified) | 218 °C
27 | CCCc1c(OCCCCCCc2ccc3cc(OCc4ccccc4)c(OCc4ccccc4)cc3c2)ccc(C(=O)OCc2ccccc2)c1O | 94 to 97 °C
28 | Cc1nc(C(=O)N2CCCC2)c2n1-c1ccc(Cl)cc1C(c1ccccc1F)=NC2 | 220 to 221 °C
29 | Cc1c(Cl)c(Cl)c(SC(F)(F)F)c(Cl)c1Cl | 49.5 to 50.5 °C
30 | CC(CCC(=O)N(C)C)C1CC=C2C3=C(CCC21C)C1(C)CCC(O)C(C)(C)C1CC3 (stereo unspecified) | 192 to 195 °C
31 | C=C(F)C(=O)Oc1c(Cl)cc(C#N)cc1Cl | 95 to 99 °C
32 | COc1cccc(N2CCC(C(N)=O)CC2)c1 | 153 to 156 °C
33 | CCOC(=O)CCNC(=O)N(CCCO)c1ccc(-c2ccc(C#N)cc2)cc1 | 102 to 104 °C
34 | CNC(=O)N1CCSC1c1ccc(O)cc1 (stereo unspecified) | 218 to 220 °C
35 | N#Cc1cc(C2=NOC(c3cc(Cl)cc(Cl)c3)(C(F)(F)F)C2)ccc1-n1cccn1 (stereo unspecified) | 169 to 176 °C
36 | COc1ccc(C=CN(C)C)c([N+](=O)[O-])c1[N+](=O)[O-] | 100 to 131 °C
37 | CC(=O)Nc1nc(C)c(CCCl)s1 | 172 to 174 °C
38 | Cc1ccc(C(=O)O)c([N+](=O)[O-])c1 | 156 to 157 °C
39 | CNC1=Nc2ccc(Cl)cc2C(c2ccc[nH]2)=NC1 | 251 °C
40 | O=C(O)CNC(=O)C(CS)Cc1ccc2c(c1)OCO2 (racemic) | 94 °C
41 | CC(C)CCCC(C)NC(=O)CCC(=O)c1ccccc1 (stereo unspecified) | 84 to 87 °C

The next lines start with the values.

Row | melting point | SMILES
42 | 103 to 106 °C | COc1cc(CC(=O)NCCCOc2ccc(C)c(C)c2)ccc1OCCN
43 | 58 to 60 °C | CC1=Nc2ccc(-c3sc(C#N)cc3C)cc2C2(CCCC2)O1
44 | 205 to 208 °C | COc1cc(Nc2ncnc3cc(OCCCc4ccncc4)c(OC)cc23)c(OC)cc1Cl
45 | 208 to 209 °C | O=C(O)Cc1nc(-c2ccc(F)cc2)oc1-c1ccoc1
46 | 115 °C | COc1ccc(-c2ccncc2)cc1-c1ccc(F)c(Cl)c1
47 | 143 to 144 °C | CC(=O)SCC(Cc1ccccc1)C(=O)Nc1cc(Cl)ccc1C(=O)O (stereo unspecified)
48 | 93 to 96 °C | COc1ccc(S(=O)(=O)C(C)(Cc2ccccc2Br)C(=O)O)cc1 (stereo unspecified)
49 | 167 °C | CCOC(=O)C1=C(C)N2CCCC2=C(C(C)=O)C1c1ccccc1C#N (stereo unspecified)
50 | 221 to 225 °C | O=C1Nc2cc(-c3ccc(C(F)(F)F)cc3)ccc2C1c1cc(Cl)ccc1O (stereo unspecified)
51 | 185 °C | O=C1NC(=Cc2cccc(Cl)c2)C(=O)C1=NO
52 | 307 to 313 °C | Cc1cc(-n2c(C)nc3ccccc32)cc2ccc(=O)[nH]c12
53 | 179 to 180 °C | S=C(Nc1ccc(Cl)cc1)Nc1ncccc1OCc1c(Cl)cccc1Cl
54 | 136 to 138 °C | C=C(c1cccc(-c2cnnn2COCC)c1F)C(O)(Cn1cncn1)c1ccc(F)cc1F (stereo unspecified)
55 | 147 to 149 °C | CCCN1C(=O)COc2ccc(N3C(=O)C(C)=C(C)C3=O)cc21
56 | 207 to 208 °C | CCc1cccc(C)c1CNc1nc(C(=O)N(C)C)cc2[nH]c(C)nc12
57 | 248 to 250 °C | COc1cc2nc(N)nc(-c3ccc(Cl)cc3)c2cc1OC
58 | 169 to 172 °C | Cc1nn(CC(F)(F)COC(=O)c2cccnc2)c(-c2ccc(F)cc2)c1-c1ccc2c(c1)NC(=O)CO2
59 | 196 to 198 °C | Cc1nc2ccccc2n1Cc1ccc(C(=O)N(C)C2CCNCC2)cc1
60 | 218 °C | Cc1ccc(NC(=O)c2ccc(C(=O)Nc3ccccc3NC(=O)OC(C)(C)C)s2)cc1Nc1nc(-c2cccnc2)cs1
61 | 174 to 175 °C | CN1N=C(c2ccccc2)C(C)(Cc2ccccc2)NC1=O (stereo unspecified)
62 | 279 to 283 °C | Oc1cc2[nH]c3ccccc3c2cc1O
63 | 54 °C | CC(C)Oc1ccc(Cc2nn(-c3ccccc3Cl)c(=O)o2)cc1
64 | 215 to 216 °C | Cc1nn(C)c(Cl)c1S(=O)(=O)Nc1ccc(Cl)cc1C(=O)Nc1ccc(S(=O)(=O)N2CCSCC2)cc1
65 | 100 to 102 °C | COc1cccc2c(=O)n(-c3ccc(Br)cc3)c(-c3cc(C)c(OCCO)c(C)c3)nc12
66 | 132 to 134 °C | COC(=O)C1=C(C)NC(C)=C(C(=O)OCC2CCC(=O)O2)C1c1ccccc1[N+](=O)[O-] (stereo unspecified)
67 | 113 to 115 °C | CC12CCC(C1)C1(C)Oc3ccc(C(O)c4ccc(CO)cc4)cc3C21C (stereo unspecified)
68 | 104 to 106 °C | COC(=O)C(O)C(=O)C(C)Oc1ccc(Oc2nc3ccc(Cl)cc3s2)cc1 (stereo unspecified)
69 | 129 to 130 °C | CCOP(=O)(COc1ccc(-c2c3ccccc3cc3sc4ccccc4c23)cc1)OCC

Row | melting point | SMILES
70 | 120 to 122 °C | CN(c1ccccc1)c1nc(N(C)c2ccccc2)c2sccc2n1
71 | 98 to 101 °C | COc1ccc2[nH]c(S(=O)Cc3cc(N4CCCCC4)ncn3)nc2c1 (stereo unspecified)
72 | 145 to 148 °C | CS(=O)(=O)c1ccc(-n2cc(-c3ccc(Br)cc3)nc2-c2ccc(Cl)cc2)cc1
73 | 122 to 123 °C | COC(=O)COc1ccc(C=Cc2nc(-c3ccccc3)c(-c3ccccc3)o2)cc1
74 | 224 to 226 °C | O=C(Nc1ccc2[nH]c(=O)sc2c1)C(=O)N1CCC(Cc2ccc(F)cc2)CC1
75 | 94 °C | O=C(O)CCc1ccccc1CNC(=O)C1Cc2ccccc2N1S(=O)(=O)c1ccc(-c2cccc(C(F)(F)F)c2)cc1 (stereo unspecified)
76 | 154 to 158 °C | CCOC(=O)c1cc(-c2cccc(C(F)(F)F)c2)c(OCCO)c(-c2cccc(C(F)(F)F)c2)c1
77 | 224 °C | CCOC(=O)c1cn(C)c2nc3cc(N4CC(N(C)C)C4)c(F)cc3cc2c1=O
78 | 142 to 143 °C | CCCCOc1ccc(NC(=O)NCC2(c3ccccc3)CCCCC2)cc1
79 | 215 to 220 °C | COC(=O)c1ccc(C=NNc2cc(C(C)(C)C)cc(C(C)(C)C)c2)cc1
80 | 201 to 203 °C | Clc1ccc(C2(Cn3cncn3)OCOC2c2ccc(Cl)cc2Cl)cc1 (stereo unspecified)
81 | 100 to 101 °C | Cc1cc(C(=N)NO)cc(C)c1OCCCc1ccco1
82 | 149 to 150 °C | OCc1ccccc1NCc1cc2c(cc1O)CCO2
83 | 209 to 211 °C | Cn1cc(-c2cccc([N+](=O)[O-])c2)c(=O)c(-c2cccc(C(F)(F)F)c2)c1
84 | 178 °C | CC(C)(C)OC(=O)CCc1cc(S(C)(=O)=O)cc(-c2nc(=O)c3ccc(F)cc3s2)n1
85 | 168 to 169 °C | Cc1ccc(NC(=O)c2cccc(N(C)C)c2)cc1NC(=O)c1cccc(N(C)S(C)(=O)=O)c1
86 | 120 to 124 °C | CN1CCN(c2ccc(/C=C/c3cc(/C=C/c4ccc5cc[nH]c5c4)[nH]n3)c(Br)c2)CC1
87 | 187 to 189 °C | CC(C)(C)c1cc(C(=O)Nc2ccccc2NC(=O)N(Cc2ccccc2)Cc2ccccc2)cc(C(C)(C)C)c1O
88 | 128 to 130 °C | COc1cc(C2(C=O)C=CC=CC2)ccc1OCCCN1CCC(c2noc3cc(F)ccc23)CC1 (stereo unspecified)
89 | 118 °C | CCCCOc1ccc(S(=O)(=O)C2(C(=O)NO)CCN(Cc3ccccn3)CC2)cc1
90 | 146 to 148 °C | O=S(CCCc1nc(-c2ccc(F)cc2)c(-c2ccncc2)[nH]1)c1ccccc1 (stereo unspecified)
91 | 85 °C | CC1(C)CC(=O)c2c(NCCCn3ccnc3)sc(-c3cc[nH]n3)c2C1
92 | 45 to 48 °C | COC(=O)Cc1ccc(OCCNC(=O)[C@@H]2Cc3ccccc3N2S(=O)(=O)c2ccc(OC(C)(C)C)cc2)cc1
93 | 135 to 136 °C | COC(=O)c1cc(Cl)ccc1-n1c(CCl)nc2ccccc2c1=O
94 | 150 to 151 °C | C#CCn1c(=O)sc2cc(F)c(-c3ccc(C(F)(F)F)n(C)c3=O)cc21
95 | 196 to 198 °C | CCCOc1ccccc1-c1nc2nc(OCC)ncc2c(=O)[nH]1
96 | 191 to 192 °C | Cc1cccc(-c2nc3ccc(Cl)nn3c2-c2ccnc(NC3CCCCC3)c2)c1
